From the supplement of paper PMC11061612

What was measured:
Assay in all cases: Bliss excess, mean over the matrix (fraction); higher = more synergy
[1] = test system: Daoy (Other Solid Carcinomas)
Method in brief: (§1)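 After 24 hours at 37°C and 5% CO2 in 1536-well plates, cells in DMEM/F12 or RPMI plus 10% FBS received two-drug dose matrices for 72 hours. Viability came from CellTiter-Glo 2.0 luminescence and was scaled as inhibition, anchored at 0 by vehicle wells and at 1 by blank wells. Combination Emax is taken as the second-highest inhibition in the matrix, and Bliss excess as the observed combination effect less EA + EB − EA·EB, with EA and EB the single-agent effects.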

KELLY (Neuroblastoma) = test system: KELLY (Neuroblastoma)
Method in brief: as §1

[2] = test system: OVCA420 (Ovarian Carcinoma)
Method in brief: as §1

[3] = test system: CaR-1 (Colorectal Carcinoma)
Method in brief: as §1

[4] = test system: EC-GI-10 (Esophageal Squamous Cell Carcinoma)
Method in brief: as §1

[5] = test system: TE-9 (Esophageal Squamous Cell Carcinoma)
Method in brief: as §1

[6] = test system: LS-180 (Colorectal Carcinoma)
Method in brief: as §1

[7] = test system: ME-1 (Acute Myeloid Leukemia)
Method in brief: as §1

[8] = test system: CCRF-CEM (T-Lymphoblastic Leukemia)
Method in brief: as §1

HOS (Osteosarcoma) = test system: HOS (Osteosarcoma)
Method in brief: as §1

ES4 (Ewing's Sarcoma) = test system: ES4 (Ewing's Sarcoma)
Method in brief: as §1

[9] = test system: NCI-H82 (Small Cell Lung Carcinoma)
Method in brief: as §1

[10] = test system: DoTc2-4510 (Cervical Carcinoma)
Method in brief: as §1

[11] = test system: KYSE-520 (Esophageal Squamous Cell Carcinoma)
Method in brief: as §1

T98G (Glioblastoma) = test system: T98G (Glioblastoma)
Method in brief: as §1

[12] = test system: Calu-3 (Lung Adenocarcinoma)
Method in brief: as §1

[13] = test system: HCC-78 (Lung Adenocarcinoma)
Method in brief: as §1

[14] = test system: RC-K8 (B-Cell Non-Hodgkin's Lymphoma)
Method in brief: as §1

[15] = test system: LB831-BLC (Bladder Carcinoma)
Method in brief: as §1

[16] = test system: MFE-296 (Endometrial Carcinoma)
Method in brief: as §1

SMILES	Bliss excess [1]	Bliss excess (KELLY (Neuroblastoma))	Bliss excess [2]	Bliss excess [3]	Bliss excess [4]	Bliss excess [5]	Bliss excess [6]	Bliss excess [7]	Bliss excess [8]	Bliss excess (HOS (Osteosarcoma))	Bliss excess (ES4 (Ewing's Sarcoma))	Bliss excess [9]	Bliss excess [10]	Bliss excess [11]	Bliss excess (T98G (Glioblastoma))	Bliss excess [12]	Bliss excess [13]	Bliss excess [14]	Bliss excess [15]	Bliss excess [16]
NC1(C(=O)N[C@@H](CCO)c2ccc(Cl)cc2)CCN(c2ncnc3[nH]ccc23)CC1 [Capivasertib] + Cn1cnc2c(F)c(Nc3ccc(Br)cc3Cl)c(C(=O)NOCCO)cc21 [Selumetinib] (first compound max 10 µM, 7x7, partner max 10 µM)	0.0225	0.0266	0.0639	0.0076	0.0744	-0.0011	-0.0247	-0.0089	0.0792	0.0007	-0.0219	-0.131	0.0133	-0.042	0.0241	0.0295	-0.009	0.0248	-0.133	-0.0133
Cc1nc(Nc2ncc(C(=O)Nc3c(C)cccc3Cl)s2)cc(N2CCN(CCO)CC2)n1 [Dasatinib] + CC(=O)Nc1cccc(-n2c(=O)n(C3CC3)c(=O)c3c(Nc4ccc(I)cc4F)n(C)c(=O)c(C)c32)c1 [Trametinib] (first compound max 2 µM, 7x7, partner max 1 µM)	0.0053	0.0824	0.025	-0.0711	-0.0871	-0.0104	0.0883	0.0126	-0.0032	-0.0361	-0.0951	-0.0149	-0.0338	-0.0902	0.0187	0.0074	-0.0361	-0.0338	-0.0529	-0.0328
COc1cc2ncnc(Nc3ccc(F)c(Cl)c3)c2cc1OCCCN1CCOCC1 [Gefitinib] + CC(C)n1c(=O)n(C)c2cnc3cc(F)c(-c4ccc(OCCCN5CCCCC5)nc4)cc3c21 [AZD1390] (first compound max 10 µM, 7x7, partner max 0.3 µM)	-0.0373	-0.0388	-0.0193	-0.0812	-0.0526	-0.0522	-0.0623	-0.0238	-0.0419	-0.0491	-0.0177	-0.0088	-0.0601	-0.043	-0.0557	-0.048	-0.0525	-0.0473	-0.0482	-0.0483
CS(=O)(=O)CCNCc1ccc(-c2ccc3ncnc(Nc4ccc(OCc5cccc(F)c5)c(Cl)c4)c3c2)o1 [Lapatinib] + C[C@@H](Oc1cc(-c2cnn(C3CCNCC3)c2)cnc1N)c1c(Cl)ccc(F)c1Cl [Crizotinib] (first compound max 10 µM, 7x7, partner max 10 µM)	-0.0297	-0.03	0.0287	-0.0084	-0.0379	-0.0194	0.0173	-0.0344	-0.0185	0.0138	-0.0261	-0.0273	-0.0321	-0.0352	-0.0861	0.0052	-0.0289	-0.0433	-0.0321	-0.0288
CC(=O)c1c(C)c2cnc(Nc3ccc(N4CCNCC4)cn3)nc2n(C2CCCC2)c1=O [Palbociclib] + CC1(C)CCC(CN2CCN(c3ccc(C(=O)NS(=O)(=O)c4ccc(NCC5CCOCC5)c([N+](=O)[O-])c4)c(Oc4cnc5[nH]ccc5c4)c3)CC2)=C(c2ccc(Cl)cc2)C1 [Venetoclax] (first compound max 10 µM, 7x7, partner max 1 µM)	0.005	0.0358	-0.0468	-0.0507	-0.0031	-0.035	-0.0124	-0.0012	-0.008	-0.0218	-0.0334	-0.0648	-0.058	-0.0442	-0.0075	-0.0252	-0.0244	-0.0904	-0.0523	-0.0262
CC(=O)c1c(C)c2cnc(Nc3ccc(N4CCNCC4)cn3)nc2n(C2CCCC2)c1=O [Palbociclib] + Cc1c2c(nn1C)CSCc1cc(n(C)n1)CSc1cc(c3ccccc3c1)OCCCc1c(C(=O)O)n(C)c3c-2c(Cl)ccc13 [AZD5991] (first compound max 10 µM, 7x7, partner max 1 µM)	-0.0112	0.0123	-0.0313	-0.0621	0.0305	-0.0334	-0.0515	-0.0141	-0.014	-0.0182	-0.046	-0.0534	-0.0143	-0.0686	0.0003	-0.0039	-0.0015	-0.0555	-0.0092	-0.0142
CC(=O)c1c(C)c2cnc(Nc3ccc(N4CCNCC4)cn3)nc2n(C2CCCC2)c1=O [Palbociclib] + Cn1cnc2c(F)c(Nc3ccc(Br)cc3Cl)c(C(=O)NOCCO)cc21 [Selumetinib] (first compound max 10 µM, 7x7, partner max 10 µM)	-0.0082	0.09	-0.0157	-0.0229	-0.0407	0.0099	0.0098	-0.0321	0.0385	0.0109	-0.0359	-0.0216	-0.0384	0.0617	-0.0103	-0.0095	-0.0189	-0.0203	-0.0339	-0.0574
